Results as given in US7091352B2, “Compounds substituted with bicyclic amino groups” (priority 2001, dated 2006).
Where two headings read alike, the source gives them in different places.

Experiments:
TNFα production = test: Inhibition of the production of TNFα in vitro in human whole blood (LPS stimulation, ELISA); assay type: cell-based; settings: read-out: Inhibitory Effect on TNFα Production IC50
Experimental: (§1) This test was performed according to the method of Hartman, et al. [D. A. Hartman, S. J. Ochalski and R. P. Carlson; The effects of anti-inflammatory and antiallergic drugs on cytokine release after stimulation of human whole blood by lipopolysaccharide and zymosan A: Inflamm. Res., 44, 269 (1995)].
(§2) Peripheral blood samples were collected in the presence of heparin from healthy adult volunteers. 1000 μl of whole blood were added to an Eppendorf tube to which 2 μl of a dimethyl sulfoxide solution of the test compound had been added in advance, after which 10 μl of lipopolysaccharide (E. coli 026: B6 origin, Difco) were added as a stimulant (final concentration of said lipopolysaccharide: 10 μg/ml). This was mixed well and then incubated for 6 hours at 37° C. in the presence of 5% CO2. At the end of the incubation, the mixture was cooled to 4° C. to stop the reaction, followed immediately by centrifuging for 5 minutes at 14,000 rpm to separate and collect the supernatant plasma. The IL-1β and TNFα produced and released into the plasma were measured using commercially available enzyme immunoassay (ELISA) kits [Cayman (IL-1β) and Genzyme (TNFα)]. […] The inhibitory effect [IC50 (μM)] on the production of IL-1β and TNFα was determined by the method of least squares from the amounts of the cytokines produced in the presence and absence of the test compound.

IL-1β production = test: Inhibition of the production of IL-1β in vitro in human whole blood (LPS stimulation, ELISA); assay type: cell-based; settings: lipopolysaccharide 10 μg/ml, 6 hours at 37° C., plasma ELISA, read-out: Inhibitory Effect on IL-1β Production IC50
Experimental: as §1, §2

OC1(c2n[nH]c(-c3ccc(F)cc3)c2-c2ccncc2)CCN2CCCC2C1 (racemic) [Example 2, (±)-5-(4-Fluorophenyl)-3-(7-hydroxy-1,2,3,5,6,7,8,8a-octahydroindolizin-7-yl)-4-(pyridin-4-yl)pyrazole]
IC50 (TNFα production; human whole blood, lipopolysaccharide 10 μg/ml, 6 hours at 37° C., plasma ELISA): 70 nM | IC50 (IL-1β production): 35 nM

CC1C[C@H]2C=C(c3n[nH]c(-c4ccc(F)cc4)c3-c3ccncc3)CCN2C1 (stereo partly drawn) [Example 12, 5-(4-Fluorophenyl)-3-[(8aS)-2-methyl-1,2,3,5,6,8a-hexahydroindolizin-7-yl]-4-(pyridin-4-yl)pyrazole]
IC50 (TNFα production; Homo sapiens, 6 h): 2.6 nM
